Reference: patent US10647680B2, “Urea compound, preparation method therefor and medical use thereof” (Ancureall Pharmaceutical (Shanghai) Co., Ltd., priority 2016, dated 2020)
Counter-ions that a name gives are not always drawn.

What was measured:
rat plasma protein = test: Binding rate to plasma protein of rats (dialysis method); type: in vitro ADME; details: dialysis, 4 h, 37° C.; test substance 2 uM, positive control 1 uM
Procedure: The binding rate of compound 77 of the present invention to plasma protein at a rat plasma concentration of 2 uM was evaluated by dialysis method.
Procedure: The DMSO stock solution of compound 77 (10 mM) or the positive control propranolol (USP) was added to 500 uL of blank plasma. The final concentration of test substance in the plasma was 2 uM, and the final concentration of the positive control was 1 uM, in triplicate. 300 uL of prepared plasma samples was added to the plasma chamber, and 500 uL of dialysis buffer was added to the buffer chamber (phosphate buffer solution PBS contained 100 mM sodium phosphate and 150 mM sodium chloride, PH 7.2), sealed, and incubated for 4 h while shaking at 100 rpm, 37° C. After incubation, 50 uL sample was taken from the plasma chamber and buffer chamber, and 50 uL of PBS was added to plasma chamber samples, and 50 uL of blank plasma was added to the buffer chamber samples. Immediately, 3-fold methanol solution containing internal standard was added, to precipitate plasma protein. After centrifugation, the supernatant was taken for LC/MS/MS analysis. The plasma protein binding rate was calculated according to the following formula: % free state=(peak area ratio in the buffer chamber/the peak area ratio in the plasma chamber)×%, % binding state=100%−% free state.

[1] = Stability test: intense light test (4500LX); type: physicochemical; details: 4500LX±500LX light for 10 days, HPLC
Procedure: The test samples were placed into an integrated drug stability test chamber (YSEI) in an exposed way under 4500LX±500LX light for 10 days. Samples were taken on the 5th and 10th days and tested according to the drug stability test indices.
(§1) An appropriate amount of test samples was taken and dissolved in acetonitrile-water (1:1), and quantitatively diluted to a solution of about 0.3 mg/ml. 20 ul of solution was injected into a liquid chromatograph (Agilent 1260 Infinity), the chromatogram was then recorded and calculated according to the percentage area method. The mobile phase was a phosphate buffer and acetonitrile aqueous solution, and then a gradient elution was carried out.

[2] = Stability test: high temperature test (60° C.); type: physicochemical; details: exposed at 60° C. for 10 days, HPLC
Procedure: The test samples were placed into an integrated drug stability test chamber (YSEI) in an exposed way at 60° C. for 10 days. Samples were taken on the 5th and 10th days and tested according to the drug stability test indices.
as §1

Solubility test = type: physicochemical; details: in water at 25° C.±2° C.
Procedure: The fine powder of the test sample was weighed into an appropriate amount of water at 25° C.±2° C. and shaken vigorously for 30 seconds every 5 minutes so that it was fully dissolved within 30 minutes. If no visible solute particles were observed, it was considered completely dissolved. “Readily soluble” means that 1 g of the test sample could be dissolved in 1-10 ml of water; and “soluble” means that 1 g of the test sample could be dissolved in 10-30 ml of water; “slightly soluble” means that 1 g of the test sample could be dissolved in 30-100 ml of water; and “sparingly soluble” means that 1 g of the test sample could be dissolved in 100-1,000 ml of water; “nearly insoluble or insoluble” means that 1 g of the test sample could not be completely dissolved in 10,000 ml of water.

[3] = Stability test: high humidity test (90%); type: physicochemical; details: 25° C., relative humidity 90%±5%, 10 days, HPLC
Procedure: The test samples were placed into an integrated drug stability test chamber (YSEI) in an exposed way at 25° C. and relative humidity of 90%±5% for 10 days. Samples were taken on the 5th and 10th days and tested according to the drug stability test indices.
as §1

U937 (FLT3 wild-type) = test: In vitro growth inhibition (GI50), U937; type: cell-based; details: Homo sapiens, U-937; Cell lines of leukemia; read-out: GI 50 U937 FLT 3(WT)
[4] = tested on: Kasumi-1 (c-Kit N822K mutant type); test: In vitro growth inhibition (GI50), Kasumi-1; type: cell-based; details: Homo sapiens, Cell lines of leukemia, read-out: GI 50 Kasumi-1 Kit (N822K)
Procedure, shortened: (§2)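 Cells in RPMI1640 with 10% FBS, seeded at 5–10×10^4 cells/mL, exposed next day to compound at 5,000 nM down to 0.01 nM (2- or 10-fold dilutions, ≤1% solvent) for 3–5 days at 37 °C. CCK8 absorbance at 450 nm, growth rate relative to pre-treatment and solvent controls, GI50 from concentration–growth curve.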

RS4; 11 (FLT3 wild type) = test: In vitro growth inhibition (GI50), RS4; 11; type: cell-based, human; details: Homo sapiens, RS4-11; Cell lines of leukemia; read-out: GI 50 RS4: 11 FLT3 (WT)
[5] = tested on: K562 (FLT3 negative expression, positive expression of BCR-ABL fusion protein); test: In vitro growth inhibition (GI50), K562; type: cell-based; details: Homo sapiens, Cell lines of leukemia, read-out: GI 50 K562 BCR-ABL
HL-60 (FLT3 wild type) = test: In vitro growth inhibition (GI50), HL-60; type: cell-based; details: Homo sapiens, Cell lines of leukemia, read-out: GI 50 HL60 FLT3 (WT)
Procedure, shortened: as §2

[6] = tested on: RAMOS (positive expression of Brutons tyrosine protein kinase); test: In vitro growth inhibition (GI50), RAMOS; type: cell-based; details: Homo sapiens, Cell lines of leukemia, read-out: GI 50 Ramos BTK
[7] = tested on: MV4-11 (FLT3 ITD+/+ mutant type); test: In vitro growth inhibition (GI50), MV4-11; type: cell-based, human; details: for GI50: Homo sapiens, MV4-11, Cell lines of leukemia, read-out: GI 50 MV4-11 FLT3 (ITD +/+)
[8] = tested on: OCI-AML3 (NPMc+ mutant type); test: In vitro growth inhibition (GI50), OCI-AML3; type: cell-based; details: Homo sapiens, OCI-AML-3; Cell lines of leukemia; read-out: GI 50 OCI- AML3 NPMc+
[9] = tested on: MOLM-13 (FLT3 ITD+/− mutant type); test: In vitro growth inhibition (GI50), MOLM-13; type: cell-based, human; details: for GI50: Homo sapiens, MOLM-13, Cell lines of leukemia, read-out: GI 50 MOLM-13 FLT3 (ITD+/−)
[10] = tested on: KG-1 (expressing FGFR1OP2-FGFR1 fusion protein); test: In vitro growth inhibition (GI50), KG-1; type: cell-based; details: Homo sapiens; Cell lines of leukemia; read-out: GI 50 KG-1 FGFR1OP 2-FGFR1
[11] = compared with the control compound AC220

Structure (SMILES)	GI50 (U937 (FLT3 wild-type))	GI50 [4]	GI50 (RS4; 11 (FLT3 wild type))	GI50 [5]	GI50 (HL-60 (FLT3 wild type))	GI50 [6]	GI50 [7]	GI50 [8]	GI50 [9]	GI50 [10]	also measured
CC(C)NCC(O)COc1cccc2ccccc12 (centres unmarked) [propranolol, reference compound]	–	–	–	–	–	–	–	–	–	–	binding rate to the rat plasma protein (rat plasma protein): 90.11%
COc1ccc2c(c1)ncn2-c1ccc(NC(=O)Nc2cc(C(C)(C)C)n[nH]2)cc1 [Compound 71 Mesylate, 1-(5-tert-butyl-2H-pyrazol-3-yl)-3-[4-(5-methoxyl-benzimidazol-1-yl)-phenyl]-urea]	–	–	–	–	–	–	–	–	–	–	Lighting (4500 LX) [1]: stable; High temperature (60° C.) [2]: stable; Solubility (Solubility test; listed as 71 Mesylate): soluble (“soluble” means that 1 g of the test sample could be dissolved in 10-30 ml of water); High Humidity (90%) [3]: stable
CCCCCCOc1ccc2c(c1)ncn2-c1ccc(NC(=O)n2nc(C(C)(C)C)cc2N)cc1 [Compound 117, 5-amino-3-tert-butyl-pyrazol-1-carboxylic acid [4-(5-hexyloxyl-benzimidazol-1-yl)-phenyl]-amide]	> 1000 nM	> 1000 nM	> 1000 nM	> 1000 nM	> 1000 nM	> 1000 nM	100 to 1000 nM	> 1000 nM	100 to 1000 nM	> 1000 nM	Solubility (Solubility test; listed as 117 Free base): insoluble (“nearly insoluble or insoluble” means that 1 g of the test sample could not be completely dissolved in 10,000 ml of water)
COCCOc1ccc2ncn(-c3ccc(NC(=O)Nc4cc(C(C)(C)C)n[nH]4)cc3)c2c1 [Compound 98, 1-(5-tert-butyl-2H-pyrazol-3-yl)-3-{4-[6-(2-methoxyl-ethoxyl)-benzimidazol-1-yl]-phenyl}-urea]	> 1000 nM	> 1000 nM	> 1000 nM	> 1000 nM	> 1000 nM	> 1000 nM	0.1 to 1 nM	> 1000 nM	0.1 to 1 nM	> 1000 nM	Solubility (Solubility test; listed as 98 Free base): insoluble (“nearly insoluble or insoluble” means that 1 g of the test sample could not be completely dissolved in 10,000 ml of water)
COc1cc2ncn(-c3ccc(NC(=O)n4nc(C(C)(C)C)cc4N)cc3)c2cc1OC [Compound 129, 5-amino-3-tert-butyl-pyrazol-1-carboxylic acid [4-(5,6-dimethoxyl-benzimidazol-1-yl)-phenyl]-amide]	> 1000 nM	> 1000 nM	> 1000 nM	> 1000 nM	> 1000 nM	> 1000 nM	1 to 10 nM	> 1000 nM	1 to 10 nM	> 1000 nM	Solubility (Solubility test; listed as 129 Free base): insoluble (“nearly insoluble or insoluble” means that 1 g of the test sample could not be completely dissolved in 10,000 ml of water)
CCCCCCOc1ccc2c(c1)ncn2-c1ccc(NC(=O)n2nc(C(C)(C)C)cc2N)cc1 [Compound 117 Mesylate, 5-amino-3-tert-butyl-pyrazol-1-carboxylic acid [4-(5-hexyloxyl-benzimidazol-1-yl)-phenyl]-amide]	–	–	–	–	–	–	–	–	–	–	Solubility (Solubility test): readily soluble (“Readily soluble” means that 1 g of the test sample could be dissolved in 1-10 ml of water)
CN(C)CCCOc1ccc2c(c1)ncn2-c1ccc(NC(=O)Nc2cc(C(C)(C)C)n[nH]2)cc1 [Compound 81]	100 to 1000 nM	> 1000 nM	10 to 100 nM	100 to 1000 nM	100 to 1000 nM	100 to 1000 nM	0.01 to 0.1 nM	> 1000 nM	0.01 to 0.1 nM	> 1000 nM	inhibition activity against the growth of MV4-11 cells compared with AC220 [7, 11]: stronger inhibition activity; inhibition activity against the growth of MOLM-13 cells compared with AC220 [9, 11]: stronger inhibition activity; Solubility (Solubility test; listed as 81 Free base): insoluble (“nearly insoluble or insoluble” means that 1 g of the test sample could not be completely dissolved in 10,000 ml of water)
COCCOc1ccc2c(c1)ncn2-c1ccc(NC(=O)Nc2cc(C(C)(C)C)n[nH]2)cc1 [Compound 77 p-toluenesulfonate, 1-(5-tert-butyl-2H-pyrazol-3-yl)-3-{4-[5-(2-methoxyl-ethoxyl)-benzimidazol-1-yl]-phenyl}-urea]	–	–	–	–	–	–	–	–	–	–	Solubility (Solubility test; listed as 77 p-toluenesulfonate): slightly soluble (“slightly soluble” means that 1 g of the test sample could be dissolved in 30-100 ml of water)
CC(C)(C)c1cc(N)n(C(=O)Nc2ccc(-n3cnc4cc(OCCO)ccc43)cc2)n1 [Compound 121, 5-amino-3-tert-butyl-pyrazol-1-carboxylic acid {4-[5-(2-hydroxy-ethoxyl)-benzimidazol-1-yl]-phenyl}-amide]	> 1000 nM	> 1000 nM	> 1000 nM	> 1000 nM	> 1000 nM	> 1000 nM	100 to 1000 nM	> 1000 nM	100 to 1000 nM	> 1000 nM	Solubility (Solubility test; listed as 121 Free base): insoluble (“nearly insoluble or insoluble” means that 1 g of the test sample could not be completely dissolved in 10,000 ml of water)
CC(C)(C)c1cc(NC(=O)Nc2ccc(-n3cnc4cc(OCCN5CCOCC5)ccc43)cc2)no1 [Compound 16 Hydrochloride, 1-(5-tert-butyl-isoxazol-3-yl)-3-{4-[5-(2-morpholin-4-yl-ethoxyl)-benzimidazol-1-yl]-phenyl}-urea]	–	–	–	–	–	–	–	–	–	–	Lighting (4500 LX) [1]: stable; High temperature (60° C.) [2]: stable; Solubility (Solubility test; listed as 16 Hydrochloride): soluble (“soluble” means that 1 g of the test sample could be dissolved in 10-30 ml of water); High Humidity (90%) [3]: stable
